From US10442807B2, “Aryl substituted bicyclic compounds as herbicides” (FMC Corporation, priority 2015, dated 2019)

Columns and labels:
Assay type in all cases: in vivo
[1] = tested on: barnyardgrass (Echinochloa crus-galli); experiment: Test A preemergence, directed soil spray, visual injury rating; conditions: approx. 10 d, 0 = no effect, 100 = complete control
Method in brief: (§1)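 Rated visually against untreated controls after approx. 10 d in greenhouse, scale 0 = no effect, 100 = complete control. Seeded loam/sand blend given directed soil spray preemergence, or plants sprayed at one- to two-leaf stage, 2-10 cm tall; surfactant-containing non-phytotoxic solvent formulation.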

[2] = tested on: foxtail, giant (giant foxtail, Setaria faberii); experiment: as above; conditions: approx. 10 d, 0 = no effect, 100 = complete control
Method in brief: as §1

kochia (Kochia scoparia) [3] = experiment: as above; conditions: approx. 10 d, 0 = no effect, 100 = complete control
Method in brief: as §1

[4] = tested on: pigweed (Amaranthus retroflexus); experiment: as above; conditions: approx. 10 d, 0 = no effect, 100 = complete control
Method in brief: as §1

[5] = tested on: ragweed (common ragweed, Ambrosia elation); experiment: as above; conditions: approx. 10 d, 0 = no effect, 100 = complete control
Method in brief: as §1

[6] = tested on: ryegrass, Italian (Italian ryegrass, Lolium multiflorum); experiment: as above; conditions: approx. 10 d, 0 = no effect, 100 = complete control
Method in brief: as §1

[7] = tested on: barnyardgrass (Echinochloa crus-galli); experiment: Test A postemergence application, visual injury rating; conditions: approx. 10 d, 0 = no effect, 100 = complete control
Method in brief: as §1

[8] = tested on: blackgrass (Alopecurus myosuroides); experiment: as above; conditions: approx. 10 d, 0 = no effect, 100 = complete control
Method in brief: as §1

corn (Zea mays) = experiment: as above; conditions: approx. 10 d, 0 = no effect, 100 = complete control
Method in brief: as §1

[9] = tested on: foxtail, giant (giant foxtail, Setaria faberii); experiment: as above; conditions: approx. 10 d, 0 = no effect, 100 = complete control
Method in brief: as §1

[10] = tested on: galium (catchweed bedstraw, Galium aparine); experiment: as above; conditions: approx. 10 d, 0 = no effect, 100 = complete control
Method in brief: as §1

kochia (Kochia scoparia) [11] = experiment: as above; conditions: approx. 10 d, 0 = no effect, 100 = complete control
Method in brief: as §1

[12] = tested on: pigweed (Amaranthus retroflexus); experiment: as above; conditions: approx. 10 d, 0 = no effect, 100 = complete control
Method in brief: as §1

[13] = tested on: ragweed (common ragweed, Ambrosia elation); experiment: as above; conditions: approx. 10 d, 0 = no effect, 100 = complete control
Method in brief: as §1

[14] = tested on: ryegrass, Italian (Italian ryegrass, Lolium multiflorum); experiment: as above; conditions: approx. 10 d, 0 = no effect, 100 = complete control
Method in brief: as §1

[15] = tested on: wheat (Triticum aestivum); experiment: as above; conditions: approx. 10 d, 0 = no effect, 100 = complete control
Method in brief: as §1

[16] = tested on: barnyardgrass (Echinochloa crus-galli); experiment: Test B flooded paddy test, visual plant response rating; conditions: applied to paddy water at 2-leaf stage, rated after 13 to 15 days, scale 0 to 100, 0 is no effect, 100 is complete control
Method in brief: (§2)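 Pots flooded to 3 cm above soil at treatment; compound applied directly into paddy water, depth held throughout. Greenhouse for 13 to 15 days, then visual rating versus untreated controls on a 0–100 scale (0 no effect, 100 complete control); dash means no result.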

[17] = tested on: ducksalad (Heteranthera limosa); experiment: as above; conditions: applied to paddy water at 2-leaf stage, rated after 13 to 15 days, scale 0 to 100, 0 is no effect, 100 is complete control
Method in brief: as §2

rice (Oryza sativa) = experiment: as above; conditions: applied to paddy water at 2-leaf stage, rated after 13 to 15 days, scale 0 to 100, 0 is no effect, 100 is complete control
Method in brief: as §2

[18] = tested on: sedge, umbrella (small-flower umbrella sedge, Cyperus difformis); experiment: as above; conditions: applied to paddy water at 2-leaf stage, rated after 13 to 15 days, scale 0 to 100, 0 is no effect, 100 is complete control
Method in brief: as §2

Row | Structure (SMILES) | Barnyardgrass plant response rating (0 to 100 scale) ([1]; 125 g ai/ha) | Barnyardgrass plant response rating (0 to 100 scale) ([1]; 500 g ai/ha) | Foxtail, Giant plant response rating (0 to 100 scale) ([2]; 125 g ai/ha) | Foxtail, Giant plant response rating (0 to 100 scale) ([2]; 500 g ai/ha) | Kochia plant response rating (0 to 100 scale) (kochia (Kochia scoparia) [3]; 125 g ai/ha) | Kochia plant response rating (0 to 100 scale) (kochia (Kochia scoparia) [3]; 500 g ai/ha) | Pigweed plant response rating (0 to 100 scale) ([4]; 125 g ai/ha) | Pigweed plant response rating (0 to 100 scale) ([4]; 500 g ai/ha) | Ragweed plant response rating (0 to 100 scale) ([5]; 125 g ai/ha) | Ragweed plant response rating (0 to 100 scale) ([5]; 500 g ai/ha) | Ryegrass, Italian plant response rating (0 to 100 scale) ([6]; 125 g ai/ha) | Ryegrass, Italian plant response rating (0 to 100 scale) ([6]; 500 g ai/ha) | Barnyardgrass plant response rating (0 to 100 scale) ([7]; 125 g ai/ha) | Barnyardgrass plant response rating (0 to 100 scale) ([7]; 500 g ai/ha) | Blackgrass plant response rating (0 to 100 scale) ([8]; 125 g ai/ha) | Blackgrass plant response rating (0 to 100 scale) ([8]; 500 g ai/ha) | Corn plant response rating (0 to 100 scale) (corn (Zea mays); 125 g ai/ha) | Corn plant response rating (0 to 100 scale) (corn (Zea mays); 500 g ai/ha) | Foxtail, Giant plant response rating (0 to 100 scale) ([9]; 125 g ai/ha) | Foxtail, Giant plant response rating (0 to 100 scale) ([9]; 500 g ai/ha) | further results
1 | O=C(Nc1ccccc1F)C1c2nncn2CC1c1cccc(C(F)(F)F)c1 (stereo not drawn) [Compound 2, N-(2-fluorophenyl)-6,7-dihydro-6-[3-(trifluoromethyl)phenyl]-5H-pyrrolo[2,1-c]-1,2,4-triazole-7-carboxamide] | 60 | 90 | 90 | 90 | 0 | 0 | 0 | 0 | 0 | 0 | 0 | 0 | 60 | 80 | 40 | 70 | 20 | 40 | 50 | 90 | Galium plant response rating (0 to 100 scale) ([10]; 125 g ai/ha): 50; Galium plant response rating (0 to 100 scale) ([10]; 500 g ai/ha): 50; Kochia plant response rating (0 to 100 scale) (kochia (Kochia scoparia) [11]; 125 g ai/ha): 0; Kochia plant response rating (0 to 100 scale) (kochia (Kochia scoparia) [11]; 500 g ai/ha): 30; Pigweed plant response rating (0 to 100 scale) ([12]; 125 g ai/ha): 0; Pigweed plant response rating (0 to 100 scale) ([12]; 500 g ai/ha): 10; Ragweed plant response rating (0 to 100 scale) ([13]; 125 g ai/ha): 0; Ragweed plant response rating (0 to 100 scale) ([13]; 500 g ai/ha): 10; Ryegrass, Italian plant response rating (0 to 100 scale) ([14]; 125 g ai/ha): 0; Ryegrass, Italian plant response rating (0 to 100 scale) ([14]; 500 g ai/ha): 50; Wheat plant response rating (0 to 100 scale) ([15]; 125 g ai/ha): 0; Wheat plant response rating (0 to 100 scale) ([15]; 500 g ai/ha): 50; Plant response rating, Flood, Barnyardgrass ([16]; 500 g ai/ha): 0; Plant response rating, Flood, Ducksalad ([17]; 500 g ai/ha): 0; Plant response rating, Flood, Rice (rice (Oryza sativa); 500 g ai/ha): 0; Plant response rating, Flood, Sedge, Umbrella ([18]; 500 g ai/ha): 0
2 | O=C(Nc1ccccc1F)C1c2nccn2CC1c1cccc(C(F)(F)F)c1 (stereo not drawn) [Compound 4] | 20 | 90 | 60 | 90 | 0 | 0 | 0 | 0 | 0 | 0 | 0 | 0 | 20 | 60 | 20 | 40 | 0 | 0 | 20 | 70 | Galium plant response rating (0 to 100 scale) ([10]; 125 g ai/ha): 0; Galium plant response rating (0 to 100 scale) ([10]; 500 g ai/ha): 0; Kochia plant response rating (0 to 100 scale) (kochia (Kochia scoparia) [11]; 125 g ai/ha): 0; Kochia plant response rating (0 to 100 scale) (kochia (Kochia scoparia) [11]; 500 g ai/ha): 0; Pigweed plant response rating (0 to 100 scale) ([12]; 125 g ai/ha): 0; Pigweed plant response rating (0 to 100 scale) ([12]; 500 g ai/ha): 0; Ragweed plant response rating (0 to 100 scale) ([13]; 125 g ai/ha): 0; Ragweed plant response rating (0 to 100 scale) ([13]; 500 g ai/ha): 0; Ryegrass, Italian plant response rating (0 to 100 scale) ([14]; 125 g ai/ha): 0; Ryegrass, Italian plant response rating (0 to 100 scale) ([14]; 500 g ai/ha): 0; Wheat plant response rating (0 to 100 scale) ([15]; 125 g ai/ha): 0; Wheat plant response rating (0 to 100 scale) ([15]; 500 g ai/ha): 20; Plant response rating, Flood, Barnyardgrass ([16]; 500 g ai/ha): 0; Plant response rating, Flood, Ducksalad ([17]; 500 g ai/ha): 0; Plant response rating, Flood, Rice (rice (Oryza sativa); 500 g ai/ha): 0; Plant response rating, Flood, Sedge, Umbrella ([18]; 500 g ai/ha): 0
3 | Cc1ccc(C2Cn3cnnc3C2C(=O)Nc2ccccc2F)cc1 (stereo not drawn) [Compound 13] | 60 | 70 | 70 | 90 | 70 | 70 | 0 | 0 | 0 | 80 | 0 | 0 | 50 | 90 | 20 | 40 | 0 | 20 | 60 | 80 | Galium plant response rating (0 to 100 scale) ([10]; 125 g ai/ha): 40; Galium plant response rating (0 to 100 scale) ([10]; 500 g ai/ha): 40; Kochia plant response rating (0 to 100 scale) (kochia (Kochia scoparia) [11]; 125 g ai/ha): 0; Kochia plant response rating (0 to 100 scale) (kochia (Kochia scoparia) [11]; 500 g ai/ha): 30; Pigweed plant response rating (0 to 100 scale) ([12]; 125 g ai/ha): 0; Pigweed plant response rating (0 to 100 scale) ([12]; 500 g ai/ha): 0; Ragweed plant response rating (0 to 100 scale) ([13]; 125 g ai/ha): 0; Ragweed plant response rating (0 to 100 scale) ([13]; 500 g ai/ha): 30; Ryegrass, Italian plant response rating (0 to 100 scale) ([14]; 125 g ai/ha): 0; Ryegrass, Italian plant response rating (0 to 100 scale) ([14]; 500 g ai/ha): 0; Wheat plant response rating (0 to 100 scale) ([15]; 125 g ai/ha): 0; Wheat plant response rating (0 to 100 scale) ([15]; 500 g ai/ha): 0; Plant response rating, Flood, Barnyardgrass ([16]; 250 g ai/ha): 40; Plant response rating, Flood, Ducksalad ([17]; 250 g ai/ha): 45; Plant response rating, Flood, Rice (rice (Oryza sativa); 250 g ai/ha): 20; Plant response rating, Flood, Sedge, Umbrella ([18]; 250 g ai/ha): 0
